Key:
[1] = Hydrolysis of LDEE salts to LD in aqueous solution, monitored by HPLC; assay type: physicochemical
[2] = Precipitation of LD from / clarity of LDEE solutions on holding; details: 2.3 M
Protocol: 150 mg of LDEE was dissolved in 3 mL of physiological saline (0.90% weight/volume of NaCl/water) at about 23° C., then at about 37° C. an additional amount of 22 mg of LDEE was added for a total LDEE concentration of about 57.3 mg/mL or about 0.25M.
At the ambient temperature of about 23° C., 226 mg of LDEE was dissolved in 1 mL of 1 M HCl. To the formed aqueous LDEE.HCl solution an additional amount of about 184 mg LDEE was added, followed by about 0.1 mL deionized water.
At the ambient temperature of about 23° C., about 113 mg of LDEE was dissolved in 1 mL of 1 M HCl. To the formed aqueous LDEE.HCl solution an additional amount of about 87 mg LDEE was added, followed by about 0.1 mL distilled water.
At the ambient temperature of about 23° C., about 226 mg of LDEE was dissolved in 1 mL of 1 M acetic acid. To the formed aqueous LDEE acetate salt solution an additional amount of about 168 mg LDEE was added. […] The pH of the resulting suspension was about 7.01 at about 26.4° C.
1.7 g of LDEE (7.5 millimoles) was dissolved in 1.405 mL of aqueous 5M HCl, then enough trisodium citrate was added to increase the pH to 5.5.
After flushing with nitrogen, the solution was kept for 7 days at 23±2° C. in a vial sealed with a grey elastomeric, substantially oxygen impermeable septum.

## CCOC(=O)[C@@H](N)Cc1ccc(O)c(O)c1.Cl [LDEE.HCl, LDEE Hydrochloride]
[1]; 0.48M LDEE•HCl, 40° C., 0 hrs, initial pH 4.2
  LD/LDEE HPLC peak ratio: 0.1292
[1]; 0.48M LDEE•HCl, 40° C., 0 hrs, initial pH 4.4
  LD/LDEE HPLC peak ratio: 0.1309
[1]; 0.48M LDEE•HCl, 40° C., 0 hrs, initial pH 4.6
  LD/LDEE HPLC peak ratio: 0.133
[1]; 0.48M LDEE•HCl, 40° C., 0 hrs, initial pH 4.8
  LD/LDEE HPLC peak ratio: 0.1352
[1]; 0.48M LDEE•HCl, 40° C., 0 hrs, initial pH 5
  LD/LDEE HPLC peak ratio: 0.1418
[1]; 0.48M LDEE•HCl, 40° C., 0 hrs, initial pH 5.3
  LD/LDEE HPLC peak ratio: 0.1547
[1]; 0.48M LDEE•HCl, 40° C., 0 hrs, initial pH 5.6
  LD/LDEE HPLC peak ratio: 0.1902
[1]; 0.48M LDEE•HCl, 40° C., 2 hrs, initial pH 4.2
  LD/LDEE HPLC peak ratio: 0.2171
[1]; 0.48M LDEE•HCl, 40° C., 2 hrs, initial pH 4.4
  LD/LDEE HPLC peak ratio: 0.2636
[1]; 0.48M LDEE•HCl, 40° C., 2 hrs, initial pH 4.6
  LD/LDEE HPLC peak ratio: 0.2998
[1]; 0.48M LDEE•HCl, 40° C., 2 hrs, initial pH 4.8
  LD/LDEE HPLC peak ratio: 0.3758
[1]; 0.48M LDEE•HCl, 40° C., 2 hrs, initial pH 5
  LD/LDEE HPLC peak ratio: 0.5202
[1]; 0.48M LDEE•HCl, 40° C., 2 hrs, initial pH 5.3
  LD/LDEE HPLC peak ratio: 0.8609
[1]; 0.48M LDEE•HCl, 40° C., 2 hrs, initial pH 5.6
  LD/LDEE HPLC peak ratio: 1.4028
[1]; 0.48M LDEE•HCl, 40° C., 6 hrs, initial pH 4.2
  LD/LDEE HPLC peak ratio: 0.3079
[1]; 0.48M LDEE•HCl, 40° C., 6 hrs, initial pH 4.4
  LD/LDEE HPLC peak ratio: 0.3994
[1]; 0.48M LDEE•HCl, 40° C., 6 hrs, initial pH 4.6
  LD/LDEE HPLC peak ratio: 0.4804
[1]; 0.48M LDEE•HCl, 40° C., 6 hrs, initial pH 4.8
  LD/LDEE HPLC peak ratio: 0.6546
[1]; 0.48M LDEE•HCl, 40° C., 6 hrs, initial pH 5
  LD/LDEE HPLC peak ratio: 0.9805
[1]; 0.48M LDEE•HCl, 40° C., 6 hrs, initial pH 5.3
  LD/LDEE HPLC peak ratio: 1.7239
[1]; 0.48M LDEE•HCl, 40° C., 6 hrs, initial pH 5.6
  LD/LDEE HPLC peak ratio: 2.8727
[1]; 0.48M LDEE•HCl, 40° C., 24 hrs, initial pH 4.2
  LD/LDEE HPLC peak ratio: 0.8294
[1]; 0.48M LDEE•HCl, 40° C., 24 hrs, initial pH 4.4
  LD/LDEE HPLC peak ratio: 1.1405
[1]; 0.48M LDEE•HCl, 40° C., 24 hrs, initial pH 4.6
  LD/LDEE HPLC peak ratio: 1.415
[1]; 0.48M LDEE•HCl, 40° C., 24 hrs, initial pH 4.8
  LD/LDEE HPLC peak ratio: 1.9804
[1]; 0.48M LDEE•HCl, 40° C., 24 hrs, initial pH 5
  LD/LDEE HPLC peak ratio: 3.0727
[1]; 0.48M LDEE•HCl, 40° C., 24 hrs, initial pH 5.3
  LD/LDEE HPLC peak ratio: 5.6312
[1]; 0.48M LDEE•HCl, 40° C., 24 hrs, initial pH 5.6
  LD/LDEE HPLC peak ratio: 9.6563
[1]; 0.95M LDEE•HCl, 40° C., 0 hrs, initial pH 4.2
  LD/LDEE HPLC peak ratio: 0.1238
[1]; 0.95M LDEE•HCl, 40° C., 0 hrs, initial pH 4.4
  LD/LDEE HPLC peak ratio: 0.1252
[1]; 0.95M LDEE•HCl, 40° C., 0 hrs, initial pH 4.6
  LD/LDEE HPLC peak ratio: 0.128
[1]; 0.95M LDEE•HCl, 40° C., 0 hrs, initial pH 4.8
  LD/LDEE HPLC peak ratio: 0.1354
[1]; 0.95M LDEE•HCl, 40° C., 0 hrs, initial pH 5
  LD/LDEE HPLC peak ratio: 0.1467
[1]; 0.95M LDEE•HCl, 40° C., 0 hrs, initial pH 5.3
  LD/LDEE HPLC peak ratio: 0.1628
[1]; 0.95M LDEE•HCl, 40° C., 0 hrs, initial pH 5.6
  LD/LDEE HPLC peak ratio: 0.1909
[1]; 0.95M LDEE•HCl, 40° C., 2 hrs, initial pH 4.2
  LD/LDEE HPLC peak ratio: 0.2073
[1]; 0.95M LDEE•HCl, 40° C., 2 hrs, initial pH 4.4
  LD/LDEE HPLC peak ratio: 0.2404
[1]; 0.95M LDEE•HCl, 40° C., 2 hrs, initial pH 4.6
  LD/LDEE HPLC peak ratio: 0.2994
[1]; 0.95M LDEE•HCl, 40° C., 2 hrs, initial pH 4.8
  LD/LDEE HPLC peak ratio: 0.3995
[1]; 0.95M LDEE•HCl, 40° C., 2 hrs, initial pH 5
  LD/LDEE HPLC peak ratio: 0.5443
[1]; 0.95M LDEE•HCl, 40° C., 2 hrs, initial pH 5.3
  LD/LDEE HPLC peak ratio: 0.8361
[1]; 0.95M LDEE•HCl, 40° C., 2 hrs, initial pH 5.6
  LD/LDEE HPLC peak ratio: 1.3007
[1]; 0.95M LDEE•HCl, 40° C., 6 hrs, initial pH 4.2
  LD/LDEE HPLC peak ratio: 0.2872
[1]; 0.95M LDEE•HCl, 40° C., 6 hrs, initial pH 4.4
  LD/LDEE HPLC peak ratio: 0.3618
[1]; 0.95M LDEE•HCl, 40° C., 6 hrs, initial pH 4.6
  LD/LDEE HPLC peak ratio: 0.4867
[1]; 0.95M LDEE•HCl, 40° C., 6 hrs, initial pH 4.8
  LD/LDEE HPLC peak ratio: 0.7068
[1]; 0.95M LDEE•HCl, 40° C., 6 hrs, initial pH 5
  LD/LDEE HPLC peak ratio: 1.0212
[1]; 0.95M LDEE•HCl, 40° C., 6 hrs, initial pH 5.3
  LD/LDEE HPLC peak ratio: 1.6832
[1]; 0.95M LDEE•HCl, 40° C., 6 hrs, initial pH 5.6
  LD/LDEE HPLC peak ratio: 2.7417
[1]; 0.95M LDEE•HCl, 40° C., 24 hrs, initial pH 4.2
  LD/LDEE HPLC peak ratio: 0.7792
[1]; 0.95M LDEE•HCl, 40° C., 24 hrs, initial pH 4.4
  LD/LDEE HPLC peak ratio: 1.0438
[1]; 0.95M LDEE•HCl, 40° C., 24 hrs, initial pH 4.6
  LD/LDEE HPLC peak ratio: 1.4684
[1]; 0.95M LDEE•HCl, 40° C., 24 hrs, initial pH 4.8
  LD/LDEE HPLC peak ratio: 2.2128
[1]; 0.95M LDEE•HCl, 40° C., 24 hrs, initial pH 5
  LD/LDEE HPLC peak ratio: 3.2875
[1]; 0.95M LDEE•HCl, 40° C., 24 hrs, initial pH 5.3
  LD/LDEE HPLC peak ratio: 5.6263
[1]; 0.95M LDEE•HCl, 40° C., 24 hrs, initial pH 5.6
  LD/LDEE HPLC peak ratio: 9.5612
[1]; 0.95 M and 0.48 M, 40° C., 24 hrs, up to about pH 5.5
  LD concentration versus estimated saturation concentration: remained below the estimated saturation concentration
[1]; 2.4 M, pH 4.0, about 4° C.
  % of LDEE.HCl hydrolyzed in the 21 week period, in addition to initial 0.16%: 1.34%
[1]; 2.5 M, pH 3.0, about 4° C.
  % of LDEE.HCl hydrolyzed in the 21 week period, in addition to initial 0.15%: 0.36%
[1]; 2.5 M, pH 4.5 citrate, 24 hours at 23±2° C.
  % of the LDEE.HCl hydrolyzed to LD: 0.39%
[2]; citrate pH 4.5, 2.5 days at room temperature and 7 weeks in a refrigerator
  appearance of infused solution after storage: colorless and clear
[2]; citrate pH 4.5, about 3 days at room temperature and about 3 months in a refrigerator
  appearance of infused solution after storage: colorless and clear

From US20140088192A1, “SUBCUTANEOUSLY INFUSIBLE LEVODOPA PRODRUG COMPOSITIONS AND METHODS OF INFUSION” (SynAgile Corporation, priority 2010, published 2014)
